Structures can show the parent of a compound that is named as a salt.
Row | melting point | Compound
1 | 157 °C | COC(=O)CCN1CCCC2(Cc3ccc(Br)cc3)C(=O)N(c3cc(Cl)nc(Cl)c3)C(=O)N12 (stereo not shown) [Example 103, 6-(4-Bromobenzyl)-8-(2,6-dichloro-4-pyridyl)-2-[2-(methoxycarbonyl)ethyl]-1,2,8-triazabicyclo[4.3.0]nonane-7,9-dione]
2 | 260.8 °C (dec.) | CN(C)CC(=O)N1CCN2C(=O)N(c3cc(Cl)nc(Cl)c3)C(=O)C2(Cc2ccc(C#N)cc2)C1 (stereo not shown) (as salt: HCl) [Example 166, 6-(4-Cyanobenzyl)-4-dimethylaminoacetyl-8-(2,6-dichloro-4-pyridyl)-1,4,8-triazabicyclo[4.3.0]nonane-7,9-dione]
3 | 70 °C | CN1CCN(C(=O)CCC(=O)N[C@@H]2CN3C(=O)N(c4cc(Cl)nc(Cl)c4)C(=O)[C@@]3(Cc3ccc(OC(F)(F)F)cc3)C2)CC1 [Example 69, (5R,7S)-5-[4-(Trifluoromethoxy)benzyl]-3-(2,6-dichloro-4-pyridyl)-7-[3-(4-methyl-1-piperazinylcarbonyl)propanoylamino]-1,3-diazabicyclo[3.3.0]octane-2,4-dione]
4 | 129.5 °C | O=C1N(c2cc(Cl)nc(Cl)c2)C(=O)C2(Cc3ccc(OC(F)(F)F)cc3)C[C@H](n3cccc3)CN12 (stereo in doubt) [Example 251, (5R, 7S)-5-[4-(Trifluoromethoxy)benzyl]-3-(2,6-dichloro-4-pyridyl)-7-(1-pyrrolyl)-1,3-diazabicyclo[3.3.0]octane-2,4-dione]
5 | 141.7 °C | NC(=O)N[C@@H]1CN2C(=O)N(c3cc(Cl)nc(Cl)c3)C(=O)[C@@]2(Cc2ccc(OC(F)(F)F)cc2)C1 [Example 287, (5R, 7S)-5-[4-(Trifluoromethoxy)benzyl]-3-(2,6-dichloro-4-pyridyl)-7-ureido-1,3-diazabicyclo[3.3.0]octane-2,4-dione]
6 | 162.3 °C | O=C1N(c2cc(Cl)nc(Cl)c2)C(=O)[C@]2(Cc3ccc(OC(F)(F)F)cc3)C[C@@H](O)CN12 [Example 59, (5S,7R)-5-[4-(Trifluoromethoxy)benzyl]-3-(2,6-dichloro-4-pyridyl)-7-hydroxy-1,3-diazabicyclo[3.3.0]octane-2,4-dione]
7 | 256.2 °C (dec.) | O=C(O)c1ccc(CC23CCCCN2C(=O)N(c2cc(Cl)cc(Cl)c2)C3=O)cc1 (stereo not shown) [Example 156]
8 | 76.3 °C | O=C1N(c2cc(Cl)nc(Cl)c2)C(=O)C2(Cc3ccc(Br)cc3)CCCN12 (stereo not shown) [Example 55, 3-(2,6-dichloro-4-pyridyl)-5-(4-bromobenzyl)-1,3-diazabicyclo[3.3.0]octane-2,4-dione]
9 | 139.9 °C | [N-]=[N+]=N[C@@H]1CN2C(=O)N(c3cc(Cl)nc(Cl)c3)C(=O)[C@@]2(Cc2ccc(OC(F)(F)F)cc2)C1 [Example 62, (5R,7S)-5-[4-(Trifluoromethoxy)benzyl]-3-(2,6-dichloro-4-pyridyl)-7-azido-1,3-diazabicyclo[3.3.0]octane-2,4-dione]
10 | 89.6 °C | CC(=O)N1CCN2C(=O)N(c3cc(Cl)cc(Cl)c3)C(=O)C2(Cc2ccc(Br)cc2)C1 (stereo not shown) [Example 28, 4-Acetyl-6-(4-bromobenzyl)-8-(3,5-dichloro-phenyl)-1,4,8-triazabicyclo[4.3.0]nonane-7,9-dione]
11 | 66.8 °C | CCCCC(=O)N[C@@H]1CN2C(=O)N(c3cc(Cl)nc(Cl)c3)C(=O)[C@@]2(Cc2ccc(OC(F)(F)F)cc2)C1 [Example 286, (5R, 7S)-5-[4-(Trifluoromethoxy)benzyl]-3-(2,6-dichloro-4-pyridyl)-7-valerylamino-1,3-diazabicyclo[3.3.0]octane-2,4-dione]
12 | 122.7 °C | CC(=O)NC1CN2C(=O)N(c3cc(Cl)nc(Cl)c3)C(=O)C2(Cc2ccc(OC(F)(F)F)cc2)C1 (stereo not shown) [Example 283]
13 | 97.6 °C | N#Cc1ccc(C[C@]23C[C@@H](O)CN2C(=O)N(c2cc(Cl)nc(Cl)c2)C3=O)cc1 [Example 60, (5R,7R)-5-(4-Cyanobenzyl)-3-(2,6-dichloro-4-pyridyl)-7-hydroxy-1,3-diazabicyclo[3.3.0]octane-2,4-dione]
14 | 119.8 °C | COC(=O)N[C@@H]1CN2C(=O)N(c3cc(Cl)nc(Cl)c3)C(=O)[C@@]2(Cc2ccc(OC(F)(F)F)cc2)C1 [Example 250, (5R, 7S)-5-[4-(Trifluoromethoxy)benzyl]-3-(2,6-dichloro-4-pyridyl)-7-methoxycarbonylamino-1,3-diazabicyclo[3.3.0]octane-2,4-dione]
15 | 52.4 °C | O=C1N(c2cc(Cl)nc(Cl)c2)C(=O)[C@@]2(Cc3ccc(OC(F)(F)F)cc3)C[C@@H](O)CN12 [Example 58, (5R,7R)-5-[4-(Trifluoromethoxy)benzyl]-3-(2,6-dichloro-4-pyridyl)-7-hydroxy-1,3-diazabicyclo[3.3.0]octane-2,4-dione]
16 | 106.1 °C | CN(C)C(=O)C1CN2C(=O)N(c3cc(Cl)cc(Cl)c3)C(=O)C2(Cc2ccc(OC(F)(F)F)cc2)C1 (stereo not shown) [Example 313]

Further lines, the compound ahead of its results:

Row | Compound | melting point
17 | CC(=O)O[C@@H]1CN2C(=O)N(c3cc(Cl)cc(Cl)c3)C(=O)[C@]2(Cc2ccc(Br)cc2)C1 [Example 4, (5S,7S)-5-(4-Bromobenzyl)-3-(3,5-dichlorophenyl)-7-acetoxy-1,3-diazabicyclo[3.3.0]octane-2,4-dione] | 149.8 °C
18 | N#Cc1ccc(C(=O)C23CCCN2C(=O)N(c2cc(Cl)cc(Cl)c2)C3=O)cc1 (stereo not shown) [Example 112, 5-(4-Cyanobenzoyl)-3-(3,5-dichlorophenyl)-1,3-diazabicyclo[3.3.0]octane-2,4-dione] | 72.1 °C
19 | COC(=O)/C=C/c1cccc(-c2ccc(CC34CCCN3C(=O)N(c3cc(Cl)cc(Cl)c3)C4=O)cc2)c1 (stereo not shown) [Example 224, (E)-5-[4-[3-(2-Methoxycarbonyl)vinylphenyl]benzyl]-3-(3,5-dichlorophenyl)-1,3-diazabicyclo[3.3.0]octane-2,4-dione] | 71.3 °C
20 | CSc1cccc(N2C(=O)N3CCCC3(Cc3ccc(Br)cc3)C2=O)c1 (stereo not shown) [Example 231] | 84.8 °C
21 | N#Cc1ccc(CC23CCCN2C(=O)N(c2cc(Cl)cc(-n4cccc4C=O)c2)C3=O)cc1 (stereo not shown) [Example 52, 5-(4-Cyanobenzyl)-3-[3-chloro-5-(2-formyl-1-pyrrolyl)-phenyl]-1,3-diazabicyclo[3.3.0]octane-2,4-dione] | 109.7 °C
22 | CS(=O)(=O)c1ccc(CC23CCCN2C(=O)N(c2cc(Cl)cc(Cl)c2)C3=O)cc1 (stereo not shown) [Example 190, 5-(4-Methylsulfonylbenzyl)-3-(3,5-dichlorophenyl)-1,3-diazabicyclo[3.3.0]octane-2,4-dione] | 80.3 °C
23 | CNC(=O)c1ccc(CC23CCCCN2C(=O)N(c2cc(Cl)cc(Cl)c2)C3=O)cc1 (stereo not shown) [Example 157] | 78.7 °C (dec.)
24 | N#Cc1ccc(CC23CCCN2C(=O)N(Cc2cc(Cl)cc(Cl)c2)C3=O)cc1 (stereo not shown) [Example 106, 5-(4-Cyanobenzyl)-3-(3,5-dichlorobenzyl)-1,3-diazabicyclo[3.3.0]octane-2,4-dione] | 124 °C
25 | O=C1N(c2cc(Cl)cc(Cl)c2)C(=O)C2(Cc3ccc(-c4cccnc4)cc3)CCCCN12 (stereo not shown) [Example 7, 6-[4-(3-Pyridyl)benzyl]-8-(3,5-dichlorophenyl)-1,8-diazabicyclo[4.3.0]nonane-7,9-dione] | 276.5 °C
26 | O=C1N(c2cc(Cl)cc(Cl)c2)C(=O)C2(Cc3ccc(Br)cc3)CCCCN12 (stereo not shown) [Example 6, 6-(4-Bromobenzyl)-8-(3,5-dichlorophenyl)-1,8-diazabicyclo[4.3.0]nonane-7,9-dione] | 128.8 °C
27 | O=C1N(c2cc(Cl)cc(Cl)c2)C(=O)[C@]2(Cc3ccc(Br)cc3)C[C@@H](O)CN12 [Example 2, (5S, 7R)-5-(4-Bromobenzyl)-3-(3,5-dichlorophenyl)-7-hydroxy-1,3-diazabicyclo[3.3.0]octane-2,4-dione] | 136.1 °C
28 | CC(C)(C)OC(=O)N1CCC2(Cc3ccc(C#N)cc3)C(=O)N(c3cc(Cl)nc(Cl)c3)C(=O)N12 (stereo not shown) [Example 56, 8-(t-Butoxycarbonyl)-5-(4-cyanobenzyl)-3-(2,6-dichloro-4-pyridyl)-1,3,8-triazabicyclo[3.3.0]octane-2,4-dione] | 179 °C
29 | O=C1N(c2cc(Cl)cc(Cl)c2)C(=O)C2(Cc3ccc(-c4ccc([N+](=O)[O-])cc4)cc3)CCCN12 (stereo not shown) [Example 114, 5-[4-(4-Nitrophenyl)benzyl]-3-(3,5-dichlorophenyl)-1,3-diazabicyclo[3.3.0]octane-2,4-dione] | 72 to 73 °C
30 | O=C1N(c2cc(Cl)cc(Cl)c2)C(=O)C2(Cc3ccc([S+]([O-])C(F)(F)F)cc3)CCCN12 (stereo not shown) [Example 310] | 63.5 °C
31 | N[C@@H]1CN2C(=O)N(c3cc(Cl)cc(Cl)c3)C(=O)[C@@]2(Cc2ccc(Br)cc2)C1 [Example 47, (5R,7S)-5-(4-Bromobenzyl)-3-(3,5-dichlorophenyl)-7-amino-1,3-diazabicyclo[3.3.0]octane-2,4-dione] | 64.4 °C
32 | N#Cc1cc(CC23CCCN2C(=O)N(c2cc(Cl)nc(Cl)c2)C3=O)ccc1O (stereo not shown) [Example 197, 5-(3-Cyano-4-hydroxybenzyl)-3-(2,6-dichloro-4-pyridyl)-1,3-diazabicyclo[3.3.0]octane-2,4-dione] | 113.5 °C
33 | CS(=O)(=O)N1CCN2C(=O)N(c3cc(Cl)cc(Cl)c3)C(=O)C2(Cc2ccc(Br)cc2)C1 (stereo not shown) [Example 33, 4-Methanesulfonyl-6-(4-bromobenzyl)-8-(3,5-dichlorophenyl)-1,4,8-triazabicyclo[4.3.0]nonane-7,9-dione] | 229 °C
34 | COc1cc(OC)cc(N2C(=O)N3CCCC3(Cc3ccc(Br)cc3)C2=O)c1 (stereo not shown) [Example 235] | 154.8 °C
35 | O=C1N(c2cc(Cl)cc(Cl)c2)C(=O)C2(Cc3ccccc3)CCCN12 (stereo not shown) [Example 267] | 173.8 °C
36 | O=C(O)CNC(=O)c1c(Cl)cc(N2C(=O)N3CCCC3(Cc3ccc(Br)cc3)C2=O)cc1Cl (stereo not shown) [Example 227, 5-(4-Bromobenzyl)-3-[3,5-dichloro-4-(carboxymethylcarbamoyl)phenyl]-1,3-diazabicyclo[3.3.0]octane-2,4-dione] | 157 to 158 °C
37 | O=C1CCCN1c1cccc(-c2ccc(CC34CCCN3C(=O)N(c3cc(Cl)cc(Cl)c3)C4=O)cc2)c1 (stereo not shown) [Example 127, 5-[4-[3-(2-oxo-1-pyrrolidinyl)phenyl]benzyl]-3-(3,5-dichlorophenyl)-1,3-diazabicyclo[3.3.0]octane-2,4-dione] | 86.5 °C

From patent publication US7342012B2, “Inhibitors of αLβ2 mediated cell adhesion” (Mitsubishi Tanabe Pharma Corporation, priority 1999, dated 2008)
